The text below walks through data of patent US10730883B2 (AbbVie Inc., priority 2015, dated 2020).

Series [1] can be described thus: Stability of isolated solid form at ambient conditions. The class given is physicochemical. The note with it: after isolation.
Series [2] is described as follows: Physical stability of solid state forms (dehydration, desolvation, conversion). In kind it is physicochemical. The settings on record: for conversion upon drying: drying / ambient drying; for physical stability: general statement on the solid state form. The method, then:
The Tartrate Hydrate dehydrated into Amorphous at low relative humidity and high temperature, e.g., <10% RH at 25° C. Shearing and compression potentially cause conversion to the amorphous tartrate, and therefore it is not suitable for compressing into tablet form. Additionally, the filter cake solidified during drying, resulting in the need for additional controls during drying.
In addition, Freebase Hydrate Form C can be grown into different particle sizes.
Freebase Anhydrate Form D can be manufactured only when the water content of the crystallization solvent is low, and will convert to Freebase Hydrate Form C in solutions at high water content. The manufacture of Freebase Anhydrate Form D thus requires strict control of water content. Freebase Anhydrate Form D is slow to crystallize, and difficult to manufacture in higher yield. […] Freebase Hydrate Form C will convert to Freebase Anhydrate Form D in a solution of ethyl acetate with low water content.
The resulting amorphous hydrochloride is hygroscopic. Yields obtained for each of the crystalline hydrochlorides generally have been in the 10% to 15% range.

Series [3] can be described thus: Hygroscopicity / moisture sorption isotherm of solid state forms. In kind it is physicochemical. The settings on record: general statement on the solid state form. From the text:
FIG. 6A is a moisture sorption isotherm corresponding to the Amorphous Freebase (via dehydration).
FIG. 6C is a moisture sorption isotherm corresponding to the Tartrate Hydrate.
FIG. 6D is a moisture sorption isotherm corresponding to the Freebase Anhydrate Form D.
In one embodiment, the Tartrate Hydrate has a moisture sorption isotherm profile showing a weight gain of about 1% to about 2% when relative humidity is increased from about 10% relative humidity to about 90% relative humidity at a temperature of 25° C.

Series [4] in a line: Stability of solid state forms to light and peroxide. In kind it is physicochemical. The method, then:
(§1) The Amorphous Freebase, however, is hygroscopic and can comprise as much as 12% by weight water at 25° C./90% relative humidity. Environmental controls potentially are required to ensure appropriate control of potency and water content during storage, dispensing, and handling of the Amorphous Freebase.
(§2) The Tartrate Hydrate, however, potentially will convert to an amorphous tartrate below 10% relative humidity, when heated, or when compressed or under shear.

The nature of series [5]: Moisture sorption isotherm. The class given is physicochemical. The note with it: below 10% relative humidity at 25° C. The method, then: Moisture vapor isotherm data were collected with a DVS Advantage (Surface Measurement Systems Ltd, Alperton, United Kingdom). The sample powder (5 mg to 20 mg) was loaded on a tared pan of the DVS Advantage. The moisture sorption isotherm data were collected from 30-0-90-0-30% relative humidity in 10% relative humidity intervals. For each step, the dm/dt criteria was 0.001% over 5 minutes, a minimum dm/dt time of 30 minutes, and a maximum dm/dt of 120 minutes. Data was collected isothermally at 25° C. with a nitrogen flow rate of 200 cm^3/minute. The post DVS sample was kept at approximately 30% relative humidity before PXRD analysis.

A short description of series [6]: Solubility of solid state forms. In kind it is physicochemical.
A short description of series [7]: Chemical stability of solid state forms in closed vials at controlled temperature and relative humidity. The class given is physicochemical. Here is the method: as §1, §2
Series [8] is described as follows: Solid state accelerated stability study. In kind it is physicochemical. The settings on record: for Growth of degradation products: open and closed glass vials. Here is the method:
Samples (approximately 1 mg to 2 mg) of the solid state form were weighed into glass vials and tested as described below.

Series [9] is described as follows: Study 2-Part 2: methotrexate PK alone or with Compound 1 in subjects with RA. In kind it is in vivo. The settings on record: human; for CL renal: urine and plasma.
Method: Subjects received study drug for 26 consecutive days (Study Days 3 through 28) and a single morning dose of study drug on Study Day 29. […] Subjects were confined to the study site for a total of 10 days—from Day 1 to Day 4 and from Day 27 to Day 31.
Samples quantified below the LLOQ were reported as zero.
Renal clearance (CLr) was calculated as Au,0-12/AUC0-12 at steady state.
The nature of series [10]: Pharmacokinetic interaction of Compound 1 and methotrexate (dose-normalized AUC). The class given is in vivo, human. The note with it: FIG. 35B.
The test system of another series is isolated Treg cells. The note with it: isolated Treg cells and rheumatoid arthritis synovial fluid; cited from earlier work.

“Also recorded” adds a separate entry of the source.

Turning to `CC[C@@H]1CN(C(=O)NCC(F)(F)F)C[C@@H]1c1cnc2cnc3[nH]ccc3n12` [Freebase Solvate Form A, (3S,4R)-3-ethyl-4-(3H-imidazo[1,2-a]pyrrolo[2,3-e]pyrazin-8-yl)-N-(2,2,2-trifluoroethyl)pyrrolidine-1-carboxamide], the “Stability at ambient conditions” value in [1] is “not stable after isolation at ambient conditions and readily dehydrated to the Amorphous Freebase”. In [2], the conversion upon drying result is “convert to the Amorphous Freebase upon drying” and the physical stability result was “not physically stable”.

Take `CC[C@@H]1CN(C(=O)NCC(F)(F)F)C[C@@H]1c1cnc2cnc3[nH]ccc3n12.O.O.O.O.O=C(O)C(O)C(O)C(=O)O` [Tartrate Hydrate, (3S,4R)-3-ethyl-4-(3H-imidazo[1,2-a]pyrrolo[2,3-e]pyrazin-8-yl)-N-(2,2,2-trifluoroethyl)pyrrolidine-1-carboxamide tartrate tetrahydrate]: the hygroscopicity result in [3] is “not hygroscopic”. The “stability to light and peroxide” value in series [4] was “acceptable stability”. Besides, in series [5], the “Dehydration in moisture sorption isotherm analysis” value is recorded as “dehydrates to an amorphous tartrate”. For the same molecule, the physical stability result in series [2] is listed as “lack of physical stability”. Besides, the BCS class result in series [6] was “Class I”. Besides, the Solubility result in series [6] (Amorphous Freebase: relative to the corresponding crystalline forms) was “high solubility; also recorded: good solubility”. In addition, the “degradation observed in closed vials” value in series [7] (closed vials, 30° C./65% relative humidity and 40° C./75% relative humidity over 12 weeks, 50° C./75% relative humidity over 6 weeks) is recorded as “no degradation”. The chemical stability result in series [7] (general statement on the solid state form) was “acceptable chemical stability”; in [8] (solid state accelerated stability study), “acceptable”. The “Growth of degradation products” value in series [8] (25° C./60% relative humidity, up to 24 months) is on record as “no growth of degradation products”; in [8] (40° C./75% relative humidity, at least one month) it was “no growth of degradation products”; in [8] (50° C./75% relative humidity, up to six weeks), “no growth of degradation products”. The “Change in attributes evaluated (description, crystal form, assay, impurities and water content)” value in series [8] (storage conditions of the accelerated stability study) was “No material change”.

As to `CC[C@@H]1CN(C(=O)NCC(F)(F)F)C[C@@H]1c1cnc2cnc3[nH]ccc3n12` [Freebase Hydrate Form B, (3S,4R)-3-ethyl-4-(3H-imidazo[1,2-a]pyrrolo[2,3-e]pyrazin-8-yl)-N-(2,2,2-trifluoroethyl)pyrrolidine-1-carboxamide], the “Stability at ambient conditions” value in series [1] is “not stable after isolation at ambient conditions and readily dehydrated to the Amorphous Freebase; also recorded: not stable at ambient conditions and readily dehydrates to the Amorphous Freebase”. In [2], the conversion upon drying entry was “convert to the Amorphous Freebase upon drying” and the physical stability entry is listed as “not physically stable”.

Regarding `CN(Cc1cnc2nc(N)nc(N)c2n1)c1ccc(C(=O)N[C@@H](CCC(=O)O)C(=O)O)cc1` [methotrexate], the Tmax came to 2.5 h in series [9] (plasma, 6 mg, Compound 1 6 mg BID Group, Day 1 (alone)); 2.5 h in series [9] (plasma, 12 mg, Compound 1 12 mg BID Group, Day 29 (with Compound 1)); 3 h in series [9] (plasma, 24 mg, Compound 1 24 mg BID Group, Day 1 (alone)); 2.5 h in [9] (plasma, 24 mg, Compound 1 24 mg BID Group, Day 29 (with Compound 1)). Further, in series [9] (plasma, 6 mg, Compound 1 6 mg BID Group, Day 29 (with Compound 1), harmonic mean ± pseudo-SD, read-out: t1/2 (terminal elimination half-life) (converted)), the half-life was 4.7 ± 1.3 h. In addition, the CL renal in series [9] (6 mg, Compound 1 6 mg BID Group, Day 1 (alone)) is 110 mL/min; in series [9] (6 mg, Compound 1 6 mg BID Group, Day 29 (with Compound 1)), 90.5 mL/min; in series [9] (12 mg, Compound 1 12 mg BID Group, Day 1 (alone)), 102 mL/min; in series [9] (12 mg, Compound 1 12 mg BID Group, Day 29 (with Compound 1)), 79.7 mL/min; in series [9] (24 mg, Compound 1 24 mg BID Group, Day 1 (alone)) it was 124 mL/min; in [9] (24 mg, Compound 1 24 mg BID Group, Day 29 (with Compound 1)), 107 mL/min. Moreover, the CL renal in [9] (Placebo group, Day 1) is 72 mL/min; in series [9] (Placebo group, Day 29), 96.7 mL/min. Also, the “effect of concomitant Compound 1 administration on methotrexate dose-normalized AUC” value in series [10] is listed as “lack of effect”.

B1: BT-061: humanized agonistic monoclonal antibody that binds to a unique epitope of human CD4 (antibody, chains of the INN, looked up, V domains shown)
VH: EEQLVESGGGLVKPGGSLRLSCAASGFSFSDCRMYWLRQAPGKGLEWIGVISVKSENYGANYAESVRGRFTISRDDSKNTVYLQMNSLKTEDTAVYYCSASYYRYDVGAWFAYWGQGTLVTVSS
VL: DIVMTQSPDSLAVSLGERATINCRASKSVSTSGYSYIYWYQQKPGQPPKLLIYLASILESGVPDRFSGSGSGTDFTLTISSLQAEDVAVYYCQHSRELPWTFGQGTKVEIK
As to B1, in the series with isolated Treg cells, the “CD4+ and CD8+ T effector cell proliferation” value is given as “suppression”; the “expression of pro-inflammatory cytokines” value is “reduction”; the “production of the anti-inflammatory cytokine TGFβ” value is reported as “increase”.

For orientation: Tmax means the time at which the peak concentration occurs.
